Laboratory results: paper PMC9500072, “Topical application of an irreversible small molecule inhibitor of lysyl oxidases ameliorates skin scarring and fibrosis” (Nature Communications, 2022)
Where “and” joins values, the source holds several entries; their conditions need not be identical. Equal entries are not always repeated. Entries after “also recorded” stand apart in the source; their conditions may differ.

Experiments:
Glutamate, Kainate = assay: Eurofins panel 232700; format: binding, rat; conditions: 10 µM
[1] = target: Leukotriene, Cysteinyl CysLT1 (Homo sapiens, UniProt Q9Y271); assay: Eurofins panel 250460; format: binding
Sequence of Leukotriene, Cysteinyl CysLT1 (Q9Y271 whole entry): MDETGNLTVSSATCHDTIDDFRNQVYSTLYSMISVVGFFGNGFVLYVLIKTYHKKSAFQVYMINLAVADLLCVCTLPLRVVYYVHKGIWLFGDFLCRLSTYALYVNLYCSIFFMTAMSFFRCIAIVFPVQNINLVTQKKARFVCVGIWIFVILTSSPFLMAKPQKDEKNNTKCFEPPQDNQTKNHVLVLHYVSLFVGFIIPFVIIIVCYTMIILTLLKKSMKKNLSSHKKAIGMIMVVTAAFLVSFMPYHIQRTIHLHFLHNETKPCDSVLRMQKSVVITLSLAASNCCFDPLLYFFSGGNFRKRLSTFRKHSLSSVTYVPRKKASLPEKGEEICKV

Glutamate, NMDA, Glycine = assay: Eurofins panel 232910; format: binding, rat; conditions: 10 µM
[2] = system: primary human fibroblasts; assay: Cell viability MTS assay; format: cell-based
Method: Cell proliferation was measured using a standard 3-(4,5-dimethylthiazol-2-yl)-5-(3-carboxymethoxypheny1)-2-(4-sulfophenyl)-2H-tetrazolium, inner salt (MTS) assay (Cell Titer 96® Aqueous One Solution Cell Proliferation Assay, Promega, Australia) as per the manufacturer’s protocol. Briefly, 2500 primary scar fibroblasts below passage eight were seeded in each well of 96-well plates. The cells then exposed to 0, 1, 2.5, 5, 10, 25, 50, and 100 µM concentrations of PXS-4787 in cell culture media (DMEM-Glutamax™ supplemented with 10% Fetal Bovine Serum and 1% Penicillin/ Streptomycin, Life technologies, USA) for 24, 48 and 72 h. MTS solution (20 µL) was added in each well and incubated for 3.5 h in a humidified chamber at 37 °C and 5% CO2. The absorbance recorded on a UV–visible spectrophotometer (Enspire Multimode plate reader, PerkinElmer®) at 490 nanometers.

Potassium Channel [KA] = assay: Eurofins panel 265510; format: binding, rat; conditions: 30 µM
[3] = system: lysyl oxidase activity in the skin; assay: Rat pharmacokinetic-pharmacodynamic model, skin lysyl oxidase activity; format: in vivo; conditions: for skin LOX activity S/N: individual animals; for inhibition of the specific lysyl oxidase signal: after 24 h
Method: (§1) PXS-6302 was formulated as an oil in water cream of different concentrations (0, 0.3, 1, 10%) and applied to a shaved area on the back of a rat (500 mg cream applied to 16 cm^2). After 24 h animals were sacrificed, the concentration of PXS-6302 in the skin was measured and the lysyl oxidase activity determined.
Fig. 5 Pharmacokinetic-pharmacodynamic measurement of target engagement in rat skin in vivo. […] Activity was measured 24 h after last topical application. Noise in these assays was determined by measuring background fluorescent changes in the presence of a high (>300 μM) concentration of BAPN to block all lysyl oxidase activity in the presence of other amine oxidase inhibitors (n = 3 per group). The signal (activity in the absence of BAPN) over noise (signal of the same extract in the presence of BAPN). Statistical analysis was performed with one-way ANOVA with Tukey’s method for multiple comparisons. *p < 0.05, **p < 0.01, ***p < 0.001 and ****p < 0.0001. Source data are provided as a Source Data file. […]
(§2) PXS-6302 was formulated as an oil in water cream of different concentrations (0, 0.3, 1, 10%) and applied to a shaved area on the back of an adult rat (500 mg cream applied to 16 cm^2 skin surface area). After 24 h animals were euthanased. For the detection of lysyl oxidase activity in the skin, epidermal and dermal layers of the skin were dissected, pre-cooled with liquid nitrogen and pulverized. Samples were washed by homogenization with ice-cold wash buffer (0.15 M NaCl, 50 mM sodium borate, pH 8.0 with 0.25 mM PMSF and 1 µL/mL bovine aprotinin as protease inhibitors) at 100 µL/mg, centrifuged at 10,000 × g for 10 min at 4 °C and supernatant discarded. After the final washing step, the pellet was resuspended in extraction buffer (6 M urea, 50 mM sodium borate, pH 8.2 with 0.25 mM PMSF and 1 µL/mL aprotinin as protease inhibitors) with ratio of buffer volume to tissue weight at 4:1. After a 3 h incubation at 4 °C, the mixture was diluted 1:2 with assay buffer containing 50 mM sodium borate (pH 8.2), centrifuged at 20,000 × g for 20 min at 4 °C. The collected supernatant was spiked with pargyline hydrochloride and mofegiline hydrochloride at final concentrations of 0.5 mM and 1 µM, respectively, to inhibit amine oxidases. Lysyl oxidase activity was measured as previously described. The concentration of PXS-6302 in the skin was also measured in the same samples using LCMSMS as described for Franz cell diffusion assay.

[4] = target: Cholecystokinin CCK1 (CCKA) (Homo sapiens, UniProt P32238); assay: Eurofins panel 218030; format: binding
Sequence of Cholecystokinin CCK1 (CCKA) (P32238 whole entry): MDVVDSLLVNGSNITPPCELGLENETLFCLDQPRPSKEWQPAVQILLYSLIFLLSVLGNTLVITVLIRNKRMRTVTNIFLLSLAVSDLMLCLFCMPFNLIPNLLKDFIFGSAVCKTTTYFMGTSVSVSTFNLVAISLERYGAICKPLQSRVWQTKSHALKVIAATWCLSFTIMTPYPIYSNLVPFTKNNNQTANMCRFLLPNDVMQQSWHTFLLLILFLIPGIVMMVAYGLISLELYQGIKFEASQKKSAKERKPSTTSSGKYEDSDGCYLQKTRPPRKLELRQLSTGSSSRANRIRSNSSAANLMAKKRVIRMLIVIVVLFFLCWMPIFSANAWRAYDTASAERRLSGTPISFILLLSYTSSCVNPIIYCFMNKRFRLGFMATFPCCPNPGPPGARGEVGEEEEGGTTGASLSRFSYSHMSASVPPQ

[5] = Rat pharmacokinetic-pharmacodynamic model, skin concentration; format: in vivo; conditions: topical; for concentration at 24 h after the last dose: 24 h after last dose; for concentration at 24 h: 500 mg on 16 cm^2, 24 h
Method: as §1
To investigate the effect of repeat dosing, cream at different concentrations (0, 0.5, 1, and 3% PXS-6302, 400 mg applied to 16 cm^2) was applied once daily for 5 consecutive days and 24 h after the last dose, animals were sacrificed and the skin concentration determined.
as §2

[6] = target: Serotonin (5-Hydroxytryptamine) 5-HT2A (Homo sapiens, UniProt P28223); assay: Eurofins panel 271650; format: binding
Sequence of Serotonin (5-Hydroxytryptamine) 5-HT2A (P28223 whole entry): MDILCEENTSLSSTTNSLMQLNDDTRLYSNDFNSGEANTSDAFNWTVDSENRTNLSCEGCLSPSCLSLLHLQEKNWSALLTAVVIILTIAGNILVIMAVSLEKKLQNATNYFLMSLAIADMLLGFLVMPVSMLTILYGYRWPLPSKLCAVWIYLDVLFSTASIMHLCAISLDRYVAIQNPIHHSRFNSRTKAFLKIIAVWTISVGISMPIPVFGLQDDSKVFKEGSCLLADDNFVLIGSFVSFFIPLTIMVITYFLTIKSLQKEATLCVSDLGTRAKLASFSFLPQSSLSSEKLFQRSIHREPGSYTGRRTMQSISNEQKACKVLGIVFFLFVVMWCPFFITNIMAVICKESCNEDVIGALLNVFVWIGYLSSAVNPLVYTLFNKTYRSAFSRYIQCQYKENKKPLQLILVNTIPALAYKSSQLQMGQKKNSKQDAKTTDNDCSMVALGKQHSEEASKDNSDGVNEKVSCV

NC/C=C(\F)CS(=O)(=O)c1ccccc1 [PXS-4787]
% Inh. (Glutamate, Kainate): 16% | inhibition at 10 µM [1]: -3% | % Inh. (Glutamate, NMDA, Glycine): 5% | fibroblast cell viability ([2]; 0–100 µM, 24, 48 and 72 h): No significant difference in viability; also recorded: no effect | Supp Fig. 1 cell viability MTS reading (quantity not given) ([2]; 1μM, time 0 hrs): 0.5417 and 0.513 and 0.509 | Supp Fig. 1 cell viability MTS reading (quantity not given) ([2]; 1μM, time 24 hrs): 0.5067 and 0.503 and 0.5037 | Supp Fig. 1 cell viability MTS reading (quantity not given) ([2]; 1μM, time 48 hrs): 0.5417 and 0.513 and 0.509 | Supp Fig. 1 cell viability MTS reading (quantity not given) ([2]; 1μM, time 72 hrs): 0.4673 and 0.4607 and 0.4573 | Supp Fig. 1 cell viability MTS reading (quantity not given) ([2]; 5μM, time 0 hrs): 0.505 and 0.4817 and 0.4813 | Supp Fig. 1 cell viability MTS reading (quantity not given) ([2]; 5μM, time 24 hrs): 0.4947 and 0.4857 and 0.4823 | Supp Fig. 1 cell viability MTS reading (quantity not given) ([2]; 5μM, time 48 hrs): 0.505 and 0.4817 and 0.4813 | Supp Fig. 1 cell viability MTS reading (quantity not given) ([2]; 5μM, time 72 hrs): 0.461 and 0.4743 and 0.4797 | Supp Fig. 1 cell viability MTS reading (quantity not given) ([2]; 10μM, time 0 hrs): 0.5527 and 0.5103 and 0.5143 | Supp Fig. 1 cell viability MTS reading (quantity not given) ([2]; 10μM, time 24 hrs): 0.533 and 0.5197 and 0.5183 | Supp Fig. 1 cell viability MTS reading (quantity not given) ([2]; 10μM, time 48 hrs): 0.5527 and 0.5103 and 0.5143 | Supp Fig. 1 cell viability MTS reading (quantity not given) ([2]; 10μM, time 72 hrs): 0.428 and 0.481 and 0.4927 | Supp Fig. 1 cell viability MTS reading (quantity not given) ([2]; 25μM, time 0 hrs): 0.569 and 0.5407 and 0.5403 | Supp Fig. 1 cell viability MTS reading (quantity not given) ([2]; 25μM, time 24 hrs): 0.5363 and 0.517 and 0.513 | Supp Fig. 1 cell viability MTS reading (quantity not given) ([2]; 25μM, time 48 hrs): 0.569 and 0.5407 and 0.5403 | Supp Fig. 1 cell viability MTS reading (quantity not given) ([2]; 25μM, time 72 hrs): 0.45 and 0.5113 and 0.529 | Supp Fig. 1 cell viability MTS reading (quantity not given) ([2]; 50μM, time 0 hrs): 0.5427 and 0.5253 and 0.526 | Supp Fig. 1 cell viability MTS reading (quantity not given) ([2]; 50μM, time 24 hrs): 0.4977 and 0.5027 and 0.5057 | Supp Fig. 1 cell viability MTS reading (quantity not given) ([2]; 50μM, time 48 hrs): 0.5427 and 0.5253 and 0.526 | Supp Fig. 1 cell viability MTS reading (quantity not given) ([2]; 50μM, time 72 hrs): 0.5073 and 0.527 and 0.526 | Supp Fig. 1 cell viability MTS reading (quantity not given) ([2]; 100μM, time 0 hrs): 0.478 and 0.466 and 0.467 | Supp Fig. 1 cell viability MTS reading (quantity not given) ([2]; 100μM, time 24 hrs): 0.468 and 0.457 and 0.456 | Supp Fig. 1 cell viability MTS reading (quantity not given) ([2]; 100μM, time 48 hrs): 0.461 and 0.4477 and 0.449 | Supp Fig. 1 cell viability MTS reading (quantity not given) ([2]; 100μM, time 72 hrs): 0.4837 and 0.4977 and 0.499

NC/C=C(\F)C(F)(F)S(=O)(=O)c1ccccc1 [PXS-6302]
% Inh. (Potassium Channel [KA]): 2% | lysyl oxidase activity after repeat dosing ([3]; 0.5, 1, 3% cream once daily 5 days): strongly reduced | lysyl oxidase activity, % of pre-drug activity ([3]; 1% cream, 48 h after the last dose): 26% | skin LOX activity S/N ([3]; repeat application 0.5% 400mg): 1.603 and 1.3949 and 1.286 and 1.15 | skin LOX activity S/N ([3]; repeat application 1% 400mg): 1.251 and 1.262 (2×) and 1.26 | skin LOX activity S/N ([3]; repeat application 3% 400mg): 1.108 and 1.192 and 1.079 and 1.121 | skin LOX activity S/N ([3]; single application 0.3% 500mg): 1.245 and 1.84 and 2.264 | skin LOX activity S/N ([3]; single application 1% 500mg): 1.893 and 1.116 and 1.337 | skin LOX activity S/N ([3]; single application 10% 500mg): 1.274 and 1.089 and 1.033 | inhibition of the specific lysyl oxidase signal ([3]; single dose 1% cream): 67% | inhibition of the specific lysyl oxidase signal ([3]; single dose 10% cream): 98% | inhibition at 30 µM [4]: 1% | concentration at 24 h after the last dose ([5]; 400 mg of 0.5% cream on 16 cm^2, once daily for 5 days, 0.5% cream 400 mg once daily 5 days): 4900 ± 800 ng/g | concentration at 24 h after the last dose ([5]; 400 mg of 1% cream on 16 cm^2, once daily for 5 days, 1% cream 400 mg once daily 5 days): 9300 ± 700 ng/g | concentration at 24 h after the last dose ([5]; 400 mg of 3% cream on 16 cm^2, once daily for 5 days, 3% cream 400 mg once daily 5 days): 31700 ± 3280 ng/g | concentration at 24 h ([5]; 500 mg of 0.3% cream on 16 cm^2, single dose 0.3% cream): 7900 ± 1500 ng/g | concentration at 24 h ([5]; 500 mg of 1% cream on 16 cm^2, single dose 1% cream): 8900 ± 1400 ng/g | concentration at 24 h ([5]; 500 mg of 10% cream on 16 cm^2, single dose 10% cream): 119000 ± 7800 ng/g | inhibition at 30 µM [6]: 25%
